The values below come from patent US20180273970A1, “PLASMID, TRANSFORMED PLANT CELL AND TRANSGENIC PLANT COMPRISING THE SAME, AND METHODS FOR PREPARING A TRANSGENIC PLANT AND FOR INCREASING YIELD OF A PLANT UNDER ABIOTIC STRESSES” (Academia Sinica, priority 2014, published 2018).

The test system of experiment [1] is rice seedlings. The experiment can be described thus: Seedling shoot and root growth under light/dark cycle or continuous darkness, with or without sucrose. The settings on record: 3% (88 mM) sucrose, 6 days. The format is in vivo. How it is done: FIG. 5. SKINs repress seedling growth by inhibiting nutrient mobilization in the endosperm. Transgenic lines SKIN1-Ox(O3), SKIN1-Ri(R3), SKIN2-Ox(02) and SKIN2-Ri(R1) were used in the following experiments. (A) Seeds were germinated and grown in water at 28° C. under a 14-h light/10-h dark cycle or continuous darkness without (panel 1) or with (panel 2) 3% (90 mM) sucrose for 6 days. (B) Lengths of shoots and roots of seedlings in (A) were quantified. Panels 1 and 2, without and with sucrose, respectively. (C) Seedlings were grown under a 14-h light/10-h dark cycle or continuous darkness for 3 days. Total RNA was extracted and subjected to quantitative (real-time) RT-PCR analysis using primers specific for αAmy3 (panel 1) and EP3A (panel 2). Error bars represent SE (n=12) at significance levels: * p<0.1, **p<0.05 in (B) and (C).
Rice (Oryza sativa cv Tainung 67) and barley (Hordeum vulgare cv Himalaya) were used in this study. Embryo calli were induced in the Murashige & Skoog (MS) medium containing 3% sucrose and […] 2,4-D (2,4-Dichlorophenoxyacetic acid) for 5 days. For hydroponic culture of rice seedlings, seeds were sterilized with 1.5% NaOCl plus Tween 20 for 1 h, washed extensively with distilled water, and germinated in a petri dish with wetted filter papers at 28° C. under a 14-h light/10-h dark condition unless otherwise indicated. […]

The subject of experiment [2] is rice seedlings. The experiment can be described thus: Seed germination and shoot elongation in air or under water (hypoxia). The settings on record: under water with 90 mM sucrose. The format is in vivo. As to the method: FIG. 6. SKINs suppress sugar production necessary for seedling growth under hypoxia. Rice seeds were germinated in air or in water with or without 90 mM sucrose at 28° C. under a 14-h light/10-h dark cycle for various lengths of time. Shoot length of seedlings were measured daily. Error bars indicate the S.E. of shoot length (n=10). Panel 1: transgenic line SKIN1-04 overexpressing SKIN1; panel 2: transgenic line SKIN2-04 overexpressing SKIN2. For data using more SKIN-Ox and SKIN-Ri lines, see also FIG. 16 online.
FIG. 16. SKINs suppress sugar production necessary for underwater seedling growth. Rice seeds of SKIN-Ox and SKIN-Ri lines were germinated in air or in water with or without 90 mM sucrose for various lengths of time. Shoot length of seedlings were measured daily. Error bars indicate the S.E. of shoot length (n=10). Panel 1: in air; panel 2: in water; panel 3: in water with sucrose.
The experiment was performed as described (Lee et al., 2009). For germination in air, seeds were placed on 3M filter papers wetted with water in a 50-ml centrifuge tube which contains half-strength MS agar medium. For germination under water, seeds were placed in a 50-ml centrifuge tube, autoclaved water was carefully poured into the tube to avoid any air bubbles, and tubes were sealed with lids.

The target in experiment [3] is T1, GAD-SnRK1A (full-length SnRK1A 1-505 fused to the Gal4 activation domain) (rice, UniProt Q852Q2 1-505).
T1 construct: range 1-505
T1 sequence (looked up): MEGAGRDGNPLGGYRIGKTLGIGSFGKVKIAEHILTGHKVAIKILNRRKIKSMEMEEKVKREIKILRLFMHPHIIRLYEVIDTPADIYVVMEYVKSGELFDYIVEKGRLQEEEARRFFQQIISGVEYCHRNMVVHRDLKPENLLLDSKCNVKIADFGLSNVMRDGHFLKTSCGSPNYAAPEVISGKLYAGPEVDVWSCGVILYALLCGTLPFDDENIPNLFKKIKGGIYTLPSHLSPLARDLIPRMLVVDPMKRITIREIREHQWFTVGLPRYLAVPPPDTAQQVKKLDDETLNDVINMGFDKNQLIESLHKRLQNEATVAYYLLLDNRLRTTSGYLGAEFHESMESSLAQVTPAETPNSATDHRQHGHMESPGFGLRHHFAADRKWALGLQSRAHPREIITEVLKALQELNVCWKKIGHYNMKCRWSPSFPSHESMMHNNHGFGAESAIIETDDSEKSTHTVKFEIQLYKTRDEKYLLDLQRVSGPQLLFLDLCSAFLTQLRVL
Nature of the experiment: rice embryo GAL4-UAS two-hybrid, luciferase reporter. How it is done: FIG. 2. The N-terminus of SKIN interacts with the kinase domain of SnRK1A. For the GAL4-UAS two-hybrid assay, rice embryos were co-transfected with effector and reporter plasmids, incubated in −S medium for 24 h, and assayed for luciferase activity. The luciferase activity in rice embryos bombarded with effectors Ubi:GAD, Ubi:GBD and reporter 5XUAS-35S mp:Luc was set to 1×, and other values were calculated relative to this value. Error bars indicate the SE for three replicate experiments. Significance levels: * p<0.1, ** p<0.05. The Y axis indicates the relative luciferase activity with different constructs. (A) Plasmid constructs. (B) Rice embryos were co-transfected with effectors Ubi:GAD-SnRK1A and Ubi:GBD-SKIN (wild type or truncated) and reporter 5XUAS-35S mp:Luc. (C) Rice embryos were co-transfected with effectors Ubi:GAD-SnRK1A [wild type, kinase domain (KD) or regulatory (RD)], Ubi:GBD-SKIN and reporter 5XUAS-35S mp:Luc. (D) Rice embryos were co-transfected with effectors Ubi:GAD-SnRK1A and Ubi:GBD-SKIN and reporter 5XUAS-35S mp:Luc, and incubated in −S medium containing 1 μM ABA.
Rice embryos were prepared for particle bombardment as described (Chen et al., 2006). The rice embryos were bombarded with reporter, effectors and internal control at a ratio of 4:2:1 for single effector or 4:2:2:1 for two effectors. […]
For orientation: In a reporter assay the amount or activity of a reporter protein is the signal.

For experiment [4], the target named is T2, SnRK1A (full length, expressed from Ubi:SnRK1A) (rice, UniProt Q852Q2 1-505).
T2 construct: range 1-505; also called pUbi-SnRK1A-Nos
T2 sequence (looked up): T1 sequence (looked up)
The experiment can be described thus: co-expression and confocal localization of GFP fusions in barley aleurone cells. How it is done:
Detection of cellular localization of SKIN-GFP, SnRK1A-GFP and MYBS1-GFP fusion proteins were performed as described (Hong et al., 2012). Embryoless barley and rice seeds were sterilized with 1% NaOCl for 30 mins, and incubated in a buffer containing 20 mM CaCl₂ and 20 mM sodium succinate, pH 5.0, for 4 days. Aleurone layers were isolated by scratching away starch in the endosperm with a razor blade. Four aleurone layers were arranged in a 10-cm dish for bombardment. Aleurone layers expressing GFP were examined with a Ziess confocal microscope (LSM510META) using a 488-nm laser line for excitation and a 515- to 560-nm long pass filter for emission.
The subcellular localization of SKIN and SnRK1A was determined. As SKINs interact with the KD of SnRK1A, the full-length, KD and RD of SnRK1A were fused to the green fluorescence protein (GFP) and expressed under the control of the Ubi promoter in a barley aleurone cell transient expression system (Hong et al., 2012). As shown in FIG. 7 and FIG. 17, SnRK1A-GFP and SnRK1A-KD-GFP were largely localized in the cytoplasm and minor in the nucleus and SnRK1A-RD-GFP mainly in the nucleus, whereas SKIN1-GFP was predominantly localized in the nucleus and minor in the cytoplasm. Co-expression of SnRK1A-GFP with SKIN1 excluded all SnRK1A-GFP from the nucleus. […]

For the molecule `OC[C@H]1O[C@@](CO)(O[C@H]2O[C@H](CO)[C@@H](O)[C@H](O)[C@H]2O)[C@@H](O)[C@@H]1O` [sucrose], the “Effect of sucrose on growth of SKIN-Ox lines” value in the experiment with rice seedlings [1] is listed as “recover the growth”. Further, in the experiment on rice seedlings [2], the “Effect of sucrose on retarded shoot elongation of SKIN-Ox lines” value is on record as “significantly recovered”.

B1: GBD-SKIN2 86-261 (other)
chain: MKLLSSIEQACDICRLKKLKCSKEKPKCAKCLKNNWECRYSPKTKRSPLTRAHLTEVESRLERLEQLFLLIFPREDLDMILKMDSLQDIKALLTGLFVQDNVNKDAVTDRLASVETDMPLTLRQHRISATSSSEESSNKGQRQLTVSSKAKEVAVEVEGGGLGFHGLGTLESLEDALPIKRGLSNFYAGKSKSFTSLAEAAAKAAAKEIAKPENPFNKRRRVLAAWSRRRASCSSLATTYLPPLLAPDHAVVEEEDEEDDSDAEQCSGSGGGNRRREPTFPPPRLSLHAQKSSLTPRSSNPASSFRSPRSFSLSDLQNAGSYN
As for B1, the binding result in experiment [3] was “no binding”.

B2: SKIN1-GFP (other)
chain: MSTAVADVPPAAAYGFPGSAKRGKPEEVVVLMGKRRNEGFFIEEEEEEEEVLTESSSIGAPSPASSSIGENSGEEEGGDDEEEVESKLKAEDEQVGLGCLDALEESLPIKRGLSNFYAGKSKSFTSLAEATASPAAAANELAKPENPFNKRRRILATWSRRASCSSLATATYLPPLLAPDHAVAEGDEGEEEDDDSDDDERQHRGKNGGRRESAAPPLPLPPPRLTLHTQMGGMVRRNGTFRSPRSLSLSDLQNSGGSC
notes: also called Ubi:SKIN1-GFP; SKIN-GFP; not shown: green fluorescence protein (GFP)
Consider B2, for which the binding result in experiment [4] is listed as “binds”.
